{"source": "paper PMC6135860", "about": "(Neuropsychopharmacology, 2018)", "key": {"humanized PDE4D mice [1]": {"test_system": "humanized PDE4D mice", "assay": "Scopolamine-induced memory impairment in novel object recognition, 1 h inter-trial interval", "type": "in vivo, mouse", "procedure": "The novel object recognition test was performed as described elsewhere. […] The duration each animal spent exploring the objects was recorded. Time spent exploring the identical objects in T1 was recorded as a1 and a2; time spent exploring the familiar and the novel objects in T2 was recorded as “a” and “b”, respectively. The following variables were calculated: e1 = a1 + a2, e2 = a + b, the relative discrimination index d2 = (b–a)/e2.\nFor the scopolamine-induced memory impairment models, a single dose of scopolamine (0.1 mg/kg, IP) was administered 30 min before the training session of the NOR. Animals treated with H-89 or vehicle were implanted with 26-gauge guide cannula unilaterally (AP −0.2 mm from Bregma, ML +1 mm from the midline, DV−2mm from skull surface) and rested for a week before any tests.\nNovel object recognition. Mice were handled for 3-5 min for 5 days in a row. The novel object recognition test was performed in a Plexiglas open field box (L30 cm, W50 cm, H40 cm) as described elsewhere^64,65. Briefly, the task procedure consists of three phases: habituation, training (T1), and testing (T2). In the habituation phase (day 1), each animal is allowed to freely explore the apparatus for 10 min; then the animal is returned to its home cage. During the training phase (day 2), a single animal is placed in the center of the open field containing two identical objects located on the diagonal of the field, and allowed to explore for 5 min. After a retention interval after T1 of 24 h (long-term recall) or 1 h (scopolamine-impairment model), the animal was subjected to the T2 testing phase for 5 min, during which one familiar object and one novel object were presented. […] The duration each animal spent exploring the objects was recorded. Time spent exploring the identical objects in T1 was recorded as a1 and a2; time spent exploring the familiar and the novel objects in T2 was recorded as ‘a’ and ‘b’, respectively. The following variables were calculated: e1 = a1 + a2, e2 = a + b, the relative discrimination index d2 = (b – a)/e2."}, "[2]": {"test_system": "pCREB, BDNF, pSynapsin, PSD95 in humanized PDE4D mice", "assay": "Immunoblot of hippocampal plasticity-related proteins", "type": "in vivo, mouse", "procedure": "Hippocampal tissues were treated with lysis buffer for protein extraction. Then, 10–30 μg protein was separated using gel electrophoresis and transferred to polyvinylidene difluoride membranes, blocked with blocking buffer, and incubated with primary antibodies overnight at 4 °C. Labeled protein bands were detected using the enhanced chemiluminescence method and quantified using Quantity One 1-D Analysis Software.\nHippocampal tissues were lysed with RIPA buffer containing protease and phosphatase inhibitors and centrifuged at 13,000 rpm for 30 min at 4 °C. Aliquots of supernatant containing 10-30 μg protein were separated using 10% SDS-PAGE as described previously^66. Proteins from the gels were transferred to polyvinylidene difluoride membranes, blocked with blocking buffer (phosphate buffered saline containing 3% BSA and 0.1% sodium azide), and incubated with primary antibodies overnight at 4°C (phospho-CREB at Ser 133 (# ab32096, diluted 1:1000, abcam, Cambridge, MA), CREB (# sc-186, diluted 1:200, Santa Cruz Biotechnology, Dallas, Texas), β -actin (Catalog # ab8227, diluted 1:2000, abcam, Cambridge, MA)), Synapsin (#2312, diluted 1:1000, Cell Signaling Technology), Phospho-synapsin (#2311, diluted […], Cell Signaling Technology ), and PSD-95 (#2507, diluted 1:1000, Cell Signaling Technology, Danvers, MA). Labeled protein bands were detected using the enhanced chemiluminescence (ECL) method and quantified using Quantity One 1-D Analysis Software."}, "humanized PDE4D mice [3]": {"test_system": "humanized PDE4D mice"}, "[4]": {"conditions": "repeated oral dosing 14 days, hPDE4D mice"}}, "data": [{"smiles": "O=C(O)Cc1ccc(Cc2cc(-c3cccc(Cl)c3)nc(C(F)(F)F)c2)cc1", "note": "[BPN14770]", "values": [{"measurement": "MED for reversal of scopolamine memory deficit", "setting": "humanized PDE4D mice [1]; acute administration 30 min prior to scopolamine, NOR 1 h inter-trial interval", "value": 0.03, "unit": "mg/kg"}, {"measurement": "memory benefit in the scopolamine impairment model with repeated dosing", "setting": "humanized PDE4D mice [1]; repeated treatment for 14 days", "value": "maintained with repeated dosing"}, {"measurement": "hippocampal CREB phosphorylation or BDNF expression after single acute dose", "setting": "[2]; 1 h after dosing, data not shown", "value": "no change"}, {"measurement": "synapsin phosphorylation in prefrontal cortex and cortex", "setting": "[2]; hPDE4D mice, repeated dosing, data not shown", "value": "increased phosphorylation of synapsin was also observed"}, {"measurement": "increase in hippocampal PSD95", "setting": "[2]; repeated dosing, 0.03 mg/kg", "value": 1.4, "unit": "fold"}, {"measurement": "increase in hippocampal phosphorylation of synapsin", "setting": "[2]; repeated dosing, 0.03 mg/kg", "value": 1.5, "unit": "fold"}, {"measurement": "elevation of hippocampal BDNF", "setting": "[2]; [4]", "value": 2.1, "unit": "fold"}, {"measurement": "elevation of hippocampal CREB phosphorylation", "setting": "[2]; [4]", "value": 2.3, "unit": "fold"}, {"measurement": "projected tolerability in non-rodent species, plasma", "setting": "humanized PDE4D mice [3]; from surrogate measure of emesis", "value": "greater than 1300 ng/ml"}, {"measurement": "window in exposure between beneficial doses and plasma exposure predicted to cause emesis", "setting": "humanized PDE4D mice [3]; humanized PDE4D mice", "value": "40- to 100 fold"}, {"measurement": "NOAEL (no observed adverse effect level), ketamine/xylazine test", "setting": "humanized PDE4D mice [3]; mouse, in vivo", "value": 1, "unit": "mg/kg PO"}]}]}
